{"source": "patent US20210292710A1", "about": "“METHOD FOR ENHANCING IMMUNE FUNCTION OF IMMUNE CELL AND IMMUNE CELL LINE PRODUCED USING THE SAME” (INDUSTRY-ACADEMIC COOPERATION FOUNDATION, YONSEI UNIVERSITY, priority 2020, published 2021)", "key": {"[1]": {"test_system": "lung-cancer cell line LLC2", "experiment": "Anti-cancer effect (tumor size) in lung-cancer cell line LLC2", "format": "in vivo", "description": "First, referring to FIG. 9A, the results of the anti-cancer effect in the lung-cancer cell line LLC2 due to PI3K inhibitor treatment are shown. […] However, when the PI3K inhibitor treatment is carried out, the tumor size is reduced compared to the control. More specifically, when the PI3K inhibitor BKM 120 treatment is carried out at 35 mpk, the tumor size on the 15th day is 300 to 350 mm^3. When BKM 120 treatment is carried out at 50 mpk, the tumor size on day 15 is found to be 90 to 100 mm^3."}, "[2]": {"test_system": "lung-cancer cell line LLC2", "experiment": "Percentage of immune cells relative to lung-cancer cell line LLC2", "format": "in vivo", "from_the_text": "Referring to FIG. 9B, the percentage of immune cells relative to the lung-cancer cell line LLC2 due to PI3K inhibitor treatment is shown. Referring first to FIG. 9B (a), the percentage of CD3+ CD8+ T cells relative to LLC2 as a lung-cancer cell line due to PI3K inhibitor treatment is shown. In this connection, CD3+ CD8+ T cells may refer to cytotoxic T cells (Tc cells) capable of destroying damaged cells, infected cells, and tumor cells. Next, referring to (b) of FIG. 9B, the percentage of CD3+ CD4+ CD25+ Foxp3 T cells relative to LLC2 as a lung-cancer cell line due to the PI3K inhibitor treatment is shown. In this connection, the CD3+ CD4+ CD25+ Foxp3 T cells refer to regulatory T cells (Treg) that may maintain immuno-tolerance and autoimmunity, that is, may inhibit the immune response of other cells. Next, referring to (c) of FIG. 9B, the percentage of CD3+ TIL cells relative to LLC2 as a lung-cancer cell line due to the PI3K inhibitor treatment is shown. In this connection, CD3+ TIL cell may refer to a tumor infiltrating lymphocyte (TIL) that infiltrates a tumor cell cluster, thereby enhancing the T cell's tumor killing ability, that is, an anti-cancer effect of the T cell. Next, referring to (d) of FIG. 9B, the percentage of MDSC cells relative to the lung-cancer cell line LLC2 due to the PI3K inhibitor treatment is shown. In this connection, the MDSC cell may refer to immature myeloid cells which inhibit the immune response of immune cells such as T cells and NK cells, and induce the generation of regulatory T cells (Treg), thereby to promote the growth of cancer cells."}, "[3]": {"test_system": "lung-cancer cell line LLC2", "experiment": "Cancer cell killing ability of CD3+ T cells from PI3K inhibitor-treated mice, co-culture with lung-cancer cell line, annexin V/PI flow cytometry", "format": "cell-based, mouse", "description": "First, 3 μg of a neoplasm lysate obtained from lung-cancer cell line LLC2 and 1 μg of an adjuvant LPS (lipopolysaccharide) are injected into 6 to 8 weeks old BALBc mice as an allogeneic model once a week in an intramuscular injection manner. At the same time, 50 mpk (mg/kg) of BKM-120 as a PI3K inhibitor (iPI3K) is orally administered to the mice belonging to the PI3K inhibitor-treated experimental group once a day.\nThen, lymphocytes are separated from the splenocyte of the mouse subjected to the PI3K inhibitor for a total of 3 weeks. Only CD3+ T cells are obtained using a magnetic-activated cell sorter (MACS).\nThen, the obtained CD3+ T cells are co-cultured for 24 hours together with the lung-cancer cell line from which the lysate is obtained. In this connection, a ratio between the numbers of the T cell and the lung-cancer cell line may be defined as 10 T cells: 1 lung-cancer cell line. Furthermore, the T cells and lung-cancer cell line are cultured under a normal condition, a hypoxic condition, and a low glucose condition, respectively, to identify cancer cell killing ability in poor tumor microenvironment.\nThen, the co-cultured T cells and lung-cancer cell line are subjected to flow cytometry analysis using an apoptosis kit and CD3+ antibodies.\nFirst, referring to (a) of FIG. 3A, the result of the cancer cell killing ability of the T cell under the normal condition due to the treatment of the PI3K inhibitor is shown. In this connection, the x-axis and y-axis indicate apoptosis using annexin V and PI (propidium iodine) as staining reagent, respectively."}, "[4]": {"test_system": "GLUT1", "experiment": "GLUT1 expression in T cell based on type of PI3K inhibitor", "from_the_text": "More specifically, referring to (a) of FIG. 12, the results of GLUT1 expression according to the type of PI3K inhibitor in the helper T cell are shown. In this connection, the PI3K inhibitor may include BKM 120 that may inhibit all subtypes, CAL-101 that may inhibit only p110δ, IPI-145 capable of inhibiting p110γ and P110δ, BYLT719 capable of inhibiting only p110α, and TGX-211 capable of inhibiting only p110β.\nReferring to (b) of FIG. 12, the results of GLUT1 expression according to the type of PI3K inhibitor in cytotoxic T cells are shown."}, "[5]": {"test_system": "pAKT (phosphoAKT)", "experiment": "pAKT expression in CD4 and CD8 T cells by flow cytometry (MFI)", "format": "cell-based, mouse", "settings": "for AKT expression relative to control: after 48 hours", "description": "First, referring to FIG. 6, an expression level of pAKT (phosphoAKT) in an active state in the T cell due to PI3K inhibitor treatment is shown. In this connection, in order to identify AKT activation of T cells due to PI3K inhibitor treatment, the CD3+ T cells obtained in FIG. 2 are used. Furthermore, the obtained CD3+ T cells are co-cultured for 48 hours together with CD11c positive dendritic cells, anti-CD3 and anti-CD28. The pAKT expression is measured via flow cytometry in 6 and 48 hours after the co-culture has started. Furthermore, expression of pAKT is indicated as mean fluorescence intensity (MFI). Furthermore, CD4 and CD8 positive cells are used as T cells to measure expression of pAKT. In this connection, CD4 and CD8 are present in the cell membrane of the T cell and are cell-binding proteins that bind to non-polymorphic regions of class II MHC and class I MHC, respectively. CD4 may be a helper T cell as a T cell lineage marker. CD8 may refer to a cytotoxic T cell."}, "[6]": {"settings": "hypoxic condition, 50 mpk BKM-120, 3 weeks, 24 hours co-culture"}, "[7]": {"settings": "low glucose condition, 50 mpk BKM-120, 3 weeks, 24 hours co-culture"}, "[8]": {"settings": "normal condition, 50 mpk BKM-120, 3 weeks, 24 hours co-culture"}}, "data": [{"molecule": "Nc1cc(C(F)(F)F)c(-c2cc(N3CCOCC3)nc(N3CCOCC3)n2)cn1", "note": "[BKM 120, buparlisib]", "values": [{"measurement": "tumor size", "setting": "[1]; 35 mpk, 15th day", "value": "300 to 350", "unit": "mm^3"}, {"measurement": "tumor size", "setting": "[1]; 50 mpk, day 15", "value": "90 to 100", "unit": "mm^3"}, {"measurement": "average percentage of CD3+ CD4+ CD25+ Foxp3 T cells (Treg)", "setting": "[2]; 35 mpk", "value": 17, "unit": "%"}, {"measurement": "average percentage of CD3+ CD8+ T cells", "setting": "[2]; 35 mpk", "value": 38, "unit": "%"}, {"measurement": "average percentage of MDSC cells", "setting": "[2]; 35 mpk", "value": 32, "unit": "%"}, {"measurement": "distribution of percentage of CD3+ CD4+ CD25+ Foxp3 T cells (Treg)", "setting": "[2]; 35 mpk", "value": "16 to 19", "unit": "%"}, {"measurement": "distribution of percentages of CD3+ CD8+ T cells", "setting": "[2]; 35 mpk", "value": "35 to 42", "unit": "%"}, {"measurement": "distribution of the percentage of MDSC cells", "setting": "[2]; 35 mpk", "value": "31 to 33", "unit": "%"}, {"measurement": "percentage of CD3+ TIL cells on average", "setting": "[2]; 35 mpk", "value": 0.4, "unit": "%"}, {"measurement": "average percentage of CD3+ CD4+ CD25+ Foxp3 T cells (Treg)", "setting": "[2]; 50 mpk", "value": 15, "unit": "%"}, {"measurement": "average percentage of CD3+ CD8+ T cells", "setting": "[2]; 50 mpk", "value": 42, "unit": "%"}, {"measurement": "average percentage of MDSC cells", "setting": "[2]; 50 mpk", "value": 24, "unit": "%"}, {"measurement": "distribution of percentage of CD3+ CD4+ CD25+ Foxp3 T cells (Treg)", "setting": "[2]; 50 mpk", "value": "13 to 17", "unit": "%"}, {"measurement": "distribution of percentages of CD3+ CD8+ T cells", "setting": "[2]; 50 mpk", "value": "37 to 50", "unit": "%"}, {"measurement": "distribution of the percentage of MDSC cells", "setting": "[2]; 50 mpk", "value": "22 to 26", "unit": "%"}, {"measurement": "percentage of CD3+ TIL cells on average", "setting": "[2]; 50 mpk", "value": 0.9, "unit": "%"}, {"measurement": "first quadrant (stained by both annexin V and PI, complete death of the cancer cell)", "setting": "[3]; [6]", "value": 47.4, "unit": "%"}, {"measurement": "fourth quadrant (annexin V / PI)", "setting": "[3]; [6]", "value": 7.36, "unit": "%"}, {"measurement": "second quadrant (annexin V / PI)", "setting": "[3]; [6]", "value": 26.7, "unit": "%"}, {"measurement": "third quadrant (annexin V / PI)", "setting": "[3]; [6]", "value": 18.5, "unit": "%"}, {"measurement": "first quadrant (stained by both annexin V and PI, complete death of the cancer cell)", "setting": "[3]; [7]", "value": 36.1, "unit": "%"}, {"measurement": "fourth quadrant (annexin V / PI)", "setting": "[3]; [7]", "value": 3.71, "unit": "%"}, {"measurement": "second quadrant (annexin V / PI)", "setting": "[3]; [7]", "value": 47.2, "unit": "%"}, {"measurement": "third quadrant (annexin V / PI)", "setting": "[3]; [7]", "value": 13.1, "unit": "%"}, {"measurement": "fourth quadrant (annexin V / PI)", "setting": "[3]; [8]", "value": 11.5, "unit": "%"}, {"measurement": "second quadrant (annexin V / PI)", "setting": "[3]; [8]", "value": 15.5, "unit": "%"}, {"measurement": "third quadrant (annexin V / PI)", "setting": "[3]; [8]", "value": 10.2, "unit": "%"}, {"measurement": "first quadrant (stained by both annexin V and PI, complete death of the cancer cell)", "setting": "[3]; normal condition, T cells from mice given 50 mpk BKM-120 orally once a day for 3 weeks, 10 T cells:1 LLC2, 24 hours", "value": 62.8, "unit": "%"}, {"measurement": "GLUT1 expression level versus BYLT719 and TGX-211 inhibitors", "setting": "[4]; cytotoxic T cells", "value": "higher GLUT1 expression levels"}, {"measurement": "GLUT1 expression level versus BYLT719 and TGX-211 inhibitors", "setting": "[4]; helper T cell", "value": "higher GLUT1 expression levels"}, {"measurement": "AKT expression level relative to the AKT expression level at the start of culture", "setting": "[5]; 48 hours after the start of culture", "value": "≥ 3", "unit": "times"}, {"measurement": "AKT expression versus control", "setting": "[5]; cytotoxic T cells (CD8), 0 to 25 hours", "value": "lower AKT expression than that of the control"}, {"measurement": "AKT expression versus control", "setting": "[5]; cytotoxic T cells (CD8), after 25 hours", "value": "higher AKT expression than that of the control"}, {"measurement": "AKT expression relative to control", "setting": "[5]; cytotoxic T cells (CD8)", "value": "1.3 to 1.7", "unit": "times"}, {"measurement": "AKT expression versus control", "setting": "[5]; helper T cell (CD4), 0 to 20 hours", "value": "lower AKT expression than that of the control"}, {"measurement": "AKT expression versus control", "setting": "[5]; helper T cell (CD4), after 20 hours", "value": "higher AKT expression than that of the control"}, {"measurement": "AKT expression relative to control", "setting": "[5]; helper T cell (CD4)", "value": "1.5 to 2", "unit": "times"}, {"measurement": "time after the start of the culture at which the AKT level is increased again to the level before the PI3K treatment", "setting": "[5]; immune cells cultured after PI3K inhibitor treatment", "value": 20, "unit": "h"}]}]}
